Test results reported in patent US11104670B2, “4-pyrimidin-5-ylmethyl-morpholine derivatives and the use thereof as medicament” (Boehringer Ingelheim International GmbH, priority 2018, dated 2021).

Experiments:
Format in all cases: cell-based
NMDA NR1/NR2B receptor [1] = target: NMDA NR1/NR2B receptor (Homo sapiens (Human), UniProt Q13224); assay: NMDA NR1/NR2B FLIPR calcium assay in HEK293 cells; conditions: glycine/glutamate-induced calcium, read-out: IC50, in vitro NR2B affinity in the FLIPR assay
Protocol: (§1) A human HEK293 cell line with tetracyclin-inducible expression of NMDA NR1/NR2B receptor was used as a test system for compound efficacy and potency. The cell line was purchased from ChanTest, Catalog #CT6121. Compound activity was determined by measuring the effect of compounds on intracellular calcium concentration induced by glycine/glutamate agonism in a FLIPRtetra system (Molecular Devices).
(§2) The cells were obtained as frozen cells in cryo-vials and stored until use at −150° C. Cells were grown in culture medium (DMEM/F12, 10% FBS, 5 μg/mL Blasticidin, 150 μg/mL Zeozin, 500 μg/mL Geneticin). […] For sub-culturing the cells were detached from flasks by Versene. For the assay, cells were detached, washed twice with induction medium (DMEM/F12 without glutamine, 10% FBS, 2 μg/mL Tetracycline, 2 mM Ketamine) and seeded to 384 well pure coat amine plates (Becton Dickinson, 50000 cells per well in 50 μl) 48 h prior to assay in induction medium.
(§3) The test compounds were dissolved in 100% DMSO at a concentration of 10 mM and in a first step diluted in DMSO to a concentration of 5 mM, followed by serial dilution steps in 100% DMSO. Dilution factor and number of dilution steps may vary according to needs. Typically 8 different concentrations by 1:5 dilutions were prepared in duplicate, further intermediate dilutions (1:37.5) of the substances were carried out with aqueous assay buffer (137 mM NaCl, 4 mM KCl, 1.8 mM CaCl2), 10 mM HEPES, 10 mM Glucose, pH 7.4) resulting in a compound concentration 3 times above the final test concentration and DMSO at 2.7% resulting in 0.9% final DMSO concentration in the assay.
(§4) At the assay day cells were washed 3× with assay buffer (as described above), 10 μL buffer remained in the wells after washing. 10 μL Ca kit loading buffer (AAT Bioquest; prepared from the kit containing the following components: Component A: Fluo-8 NW dissolved in 200 μL DMSO and 20 μl of this solution are mixed with 10 ml buffer prepared out of component B and C, Component B: 10× Pluronic® F127 Plus diluted 1:10 in component C, Component C: HHBS (Hanks with 20 mM Hepes) was added to the cells and the plates were incubated with lid for 60 minutes at room temperature. 20 μl assay buffer containing 60 μM glycine (20 μM final) and 3 μM glutamate (1 μM final) was added to column 1-23, column 24 got assay buffer without glycine/glutamate to serve as negative unstimulated control. Fluorescence (indicating the calcium influx as a result of the NR1/NR2B ion channel activation) was read on the FLIPRtetra device for 60 seconds to monitor the glutamate induced effects. After 2 minutes 20 μL of compound dilution prepared as described above or controls (row 1-22) in assay buffer were carefully added to the wells. […] The average of 2 measurements at 5 minutes and 5 min 10 seconds after compound addition is calculated and further used for IC50 calculations. Each assay microtiter compound dilution plate contained wells (in column 23 or 24) with DMSO controls instead of compound as controls for glycine/glutamate induced fluorescence (high controls) and wells with 1 μM of a reference NR2B NAM as low controls (Compound 22; reference: Layton, Mark E et al, ACS Chemical Neuroscience 2011, 2(7), 352-362).
(§5) The output file of the reader contains the well number and measured average fluorescence units. For data evaluation and calculation, the measurement of the low control was set as 0% control and the measurement of the high control was set as 100% control. The IC50 values were calculated using the standard 4 parameter logistic regression formula. Calculation: [y=(a−d)/(1+(x/c)^b)+d], a=low value, d=high value; x=conc M; c=IC50 M; b=slope.

Nav1.6 channel = Nav1.6 channel (Homo sapiens (Human), UniProt Q9UQD0); assay: Nav1.6 inhibition, IonWorks Quattro electrophysiology; conditions: for inhibition at 1 µM / Normalized % inhibition at 5 μM / inhibition at 5 µM: normalized to vehicle (0%) and maximal inhibition control (100%)
Protocol: Ion Works Quattro electrophysiological platform
The compounds were prepared in DMSO at 300× the final assay concentrations of 1 and 5 μM.
The 300× DMSO stock solutions were transferred into assay plates where 2 μl per well of each 300× stock solution were placed. All assay plates were stored at −80° C. until the day of assay.
On the day of the assay, the appropriate assay plate was thawed at room temperature, centrifuged, and 198 μl of external recording solution was added and mixed thoroughly. This provided a 1:100 dilution. A further 1:3 dilution occurred upon addition to the cells in the IonWorks Quattro electrophysiological platform, giving a 1:300 dilution in total.
On each assay plate, at least 8 wells were reserved for vehicle control (0.3% DMSO) and at least 8 wells for each positive control specific to the cell line tested. The positive controls were tested at a maximal blocking and an approximate IC50 concentration. As positive control Lidocaine at concentrations of 30 and 1000 μM was used.
Amphotericin B was used to obtain electrical access to the cell interior at a final concentration of 200 μg/ml in internal recording solution.
State-dependent inhibition: Sodium channels when held at depolarized potential or long test pulse, the channels open and inactivate and then stay inactivated until the membrane potential is stepped back to hyperpolarized potentials, when the inactivated channels recover from inactivation into closed state.
Cells were held at −120 mV. In order to completely inactivate the sodium channels (pulse 1), the cells were pulsed to +0 mV for 2500 ms and stepped back to −120 mV for 10 ms (to completely recover from inactivation, however channels that had drugs bound to them will not recover from inactivation) before stepping to +0 mV for 20 ms (pulse 2).
Both the positive and vehicle control data associated with each cell line assayed are shown below as an example. The mean is shown for each positive and negative control as solid symbol with the total number of individual well replicates given next to the solid symbol. In addition, the individual data of each well are shown on the graph as open symbols so that the variation about the mean value can be readily assessed.
In FIG. 2, a Post/Pre value of 1.0 corresponds to 0% inhibition, a Post/Pre value of 0.0 corresponds to 100% inhibition.
Tables 3 and 4 show the normalized percentage inhibition of Nav1.6 channel. […] (see also the figure Assay Control Results above).

NMDA NR1/NR2B receptor [2] = target: NMDA NR1/NR2B receptor (Homo sapiens (Human), UniProt Q05586+Q13224); assay: NMDA NR1/NR2B FLIPR calcium assay in HEK293 cells; conditions: glycine/glutamate-induced calcium, read-out: IC50, in vitro NR2B affinity in the FLIPR assay
Protocol: as §1, §2, §3, §4, §5

Nav1.6 channel, sequence (Q9UQD0 whole entry): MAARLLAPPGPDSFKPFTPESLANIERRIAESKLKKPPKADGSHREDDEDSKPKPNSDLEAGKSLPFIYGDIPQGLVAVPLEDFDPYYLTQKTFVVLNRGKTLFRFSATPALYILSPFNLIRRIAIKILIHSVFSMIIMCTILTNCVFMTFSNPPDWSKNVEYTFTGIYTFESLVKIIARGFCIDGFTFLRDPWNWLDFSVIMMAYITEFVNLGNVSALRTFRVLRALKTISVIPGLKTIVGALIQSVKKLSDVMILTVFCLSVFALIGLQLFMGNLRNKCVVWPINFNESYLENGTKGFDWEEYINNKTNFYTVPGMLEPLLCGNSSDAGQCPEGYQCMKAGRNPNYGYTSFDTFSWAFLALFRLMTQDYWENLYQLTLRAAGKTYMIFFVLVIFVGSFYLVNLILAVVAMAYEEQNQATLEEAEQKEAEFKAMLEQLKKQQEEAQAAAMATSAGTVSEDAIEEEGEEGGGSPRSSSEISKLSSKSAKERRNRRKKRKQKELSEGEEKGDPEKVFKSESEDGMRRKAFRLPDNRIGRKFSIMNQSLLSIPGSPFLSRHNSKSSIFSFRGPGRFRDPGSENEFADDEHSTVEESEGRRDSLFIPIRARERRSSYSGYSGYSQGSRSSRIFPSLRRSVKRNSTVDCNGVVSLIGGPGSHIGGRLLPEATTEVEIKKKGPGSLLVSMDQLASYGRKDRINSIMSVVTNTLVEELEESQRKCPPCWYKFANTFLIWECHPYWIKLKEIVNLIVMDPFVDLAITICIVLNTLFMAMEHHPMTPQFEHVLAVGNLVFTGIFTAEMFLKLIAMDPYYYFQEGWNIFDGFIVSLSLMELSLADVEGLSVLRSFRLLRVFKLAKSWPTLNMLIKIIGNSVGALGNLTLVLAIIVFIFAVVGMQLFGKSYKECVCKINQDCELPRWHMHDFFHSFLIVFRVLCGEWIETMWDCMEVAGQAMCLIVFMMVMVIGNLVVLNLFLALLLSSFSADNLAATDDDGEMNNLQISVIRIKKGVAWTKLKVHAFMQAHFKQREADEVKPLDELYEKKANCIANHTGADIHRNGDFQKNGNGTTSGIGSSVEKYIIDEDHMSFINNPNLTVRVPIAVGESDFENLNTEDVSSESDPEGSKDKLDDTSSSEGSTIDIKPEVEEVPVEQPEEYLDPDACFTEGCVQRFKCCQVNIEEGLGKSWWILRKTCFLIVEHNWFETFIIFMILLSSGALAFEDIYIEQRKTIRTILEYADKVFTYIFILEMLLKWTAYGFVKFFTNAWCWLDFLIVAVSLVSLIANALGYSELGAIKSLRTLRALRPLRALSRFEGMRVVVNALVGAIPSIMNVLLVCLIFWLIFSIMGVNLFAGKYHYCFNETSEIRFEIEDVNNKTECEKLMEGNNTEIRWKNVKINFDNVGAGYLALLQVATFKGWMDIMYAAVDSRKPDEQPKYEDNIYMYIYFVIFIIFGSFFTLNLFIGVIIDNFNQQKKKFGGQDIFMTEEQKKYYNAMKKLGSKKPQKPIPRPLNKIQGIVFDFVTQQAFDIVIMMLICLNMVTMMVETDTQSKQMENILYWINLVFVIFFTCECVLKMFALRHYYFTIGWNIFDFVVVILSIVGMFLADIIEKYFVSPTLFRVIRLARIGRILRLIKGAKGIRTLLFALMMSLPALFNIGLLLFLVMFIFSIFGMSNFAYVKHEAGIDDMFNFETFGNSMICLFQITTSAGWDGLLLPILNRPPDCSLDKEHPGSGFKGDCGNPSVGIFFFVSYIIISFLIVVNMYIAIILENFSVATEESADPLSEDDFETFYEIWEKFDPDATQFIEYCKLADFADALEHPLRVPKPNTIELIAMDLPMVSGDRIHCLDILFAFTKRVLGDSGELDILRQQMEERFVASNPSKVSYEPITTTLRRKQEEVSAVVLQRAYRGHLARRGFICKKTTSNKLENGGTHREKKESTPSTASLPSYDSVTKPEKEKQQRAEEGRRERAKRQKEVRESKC
NMDA NR1/NR2B receptor (Homo sapiens (Human), UniProt Q13224), sequence (Q13224 27-1484, other chains not shown): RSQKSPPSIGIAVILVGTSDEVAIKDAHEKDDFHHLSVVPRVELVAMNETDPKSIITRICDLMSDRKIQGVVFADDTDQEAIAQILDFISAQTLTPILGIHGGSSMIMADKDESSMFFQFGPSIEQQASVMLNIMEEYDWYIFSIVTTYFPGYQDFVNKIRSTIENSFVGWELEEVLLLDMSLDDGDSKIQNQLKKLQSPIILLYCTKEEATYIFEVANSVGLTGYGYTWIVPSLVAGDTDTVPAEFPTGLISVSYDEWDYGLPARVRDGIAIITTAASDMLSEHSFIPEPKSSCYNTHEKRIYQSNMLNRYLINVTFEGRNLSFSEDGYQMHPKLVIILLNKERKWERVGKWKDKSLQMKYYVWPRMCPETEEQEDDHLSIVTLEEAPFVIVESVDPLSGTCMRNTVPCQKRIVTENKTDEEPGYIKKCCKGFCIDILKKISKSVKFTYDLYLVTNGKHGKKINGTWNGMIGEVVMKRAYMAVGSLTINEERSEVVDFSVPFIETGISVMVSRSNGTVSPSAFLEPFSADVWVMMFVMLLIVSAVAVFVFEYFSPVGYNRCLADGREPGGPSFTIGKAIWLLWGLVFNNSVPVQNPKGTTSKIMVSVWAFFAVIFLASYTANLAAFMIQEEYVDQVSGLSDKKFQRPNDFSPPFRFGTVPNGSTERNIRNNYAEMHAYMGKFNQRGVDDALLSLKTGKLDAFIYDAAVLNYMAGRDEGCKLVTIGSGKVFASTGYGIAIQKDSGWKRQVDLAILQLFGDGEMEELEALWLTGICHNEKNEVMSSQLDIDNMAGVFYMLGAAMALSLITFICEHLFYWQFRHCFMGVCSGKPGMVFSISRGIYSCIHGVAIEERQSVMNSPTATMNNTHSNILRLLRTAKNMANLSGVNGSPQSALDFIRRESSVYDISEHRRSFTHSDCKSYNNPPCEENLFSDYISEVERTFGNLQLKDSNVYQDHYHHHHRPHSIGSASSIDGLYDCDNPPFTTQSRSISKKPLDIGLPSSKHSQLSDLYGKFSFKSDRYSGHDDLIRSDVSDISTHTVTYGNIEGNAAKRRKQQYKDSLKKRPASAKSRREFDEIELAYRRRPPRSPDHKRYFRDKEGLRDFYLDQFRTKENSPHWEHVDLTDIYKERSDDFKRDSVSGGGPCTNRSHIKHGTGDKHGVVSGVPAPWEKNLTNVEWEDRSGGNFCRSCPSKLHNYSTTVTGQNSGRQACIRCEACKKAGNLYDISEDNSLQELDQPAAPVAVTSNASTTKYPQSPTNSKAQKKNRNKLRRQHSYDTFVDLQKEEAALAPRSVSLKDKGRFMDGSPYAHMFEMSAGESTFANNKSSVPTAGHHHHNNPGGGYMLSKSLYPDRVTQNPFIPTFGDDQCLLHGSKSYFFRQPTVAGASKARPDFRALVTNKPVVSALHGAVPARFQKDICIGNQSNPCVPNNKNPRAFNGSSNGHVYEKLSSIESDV
NMDA NR1/NR2B receptor (Homo sapiens (Human), UniProt Q05586+Q13224), sequence (Q13224 27-1484, other chains not shown): as above

Structure (SMILES) | IC50 (NMDA NR1/NR2B receptor [1]) | inhibition at 1 µM (Nav1.6 channel) | Normalized % inhibition at 5 μM (Nav1.6 channel) | inhibition at 5 µM (Nav1.6 channel) | IC50 (NMDA NR1/NR2B receptor [2]) | also measured
CNC(=O)[C@@H]1CN(Cc2cnc(Oc3c(F)cccc3F)nc2)CCO1 [Example 34] | 362 nM |  |  |  |  | 
O=C(C1CN(Cc2cccc(Oc3ccccc3)c2)CCO1)N1CCOCC1 (stereo not drawn) [Example 106, reference compound] |  | -0.7% | 14% | 14% | > 9260 nM | 
CCNC(=O)C1CN(Cc2cccc(Oc3ccccc3)c2)CCO1 (stereo not drawn) [Example 100, reference compound] |  | 2.2% | 37.8% | 37.8% | > 8890 nM | 
CCN(CC)CC(=O)Nc1c(C)cccc1C [Lidocaine, reference compound] |  |  |  |  |  | inhibition of evoked Nav1.6 currents (in words) (Nav1.6 channel; assay control, 30 and 1000 μM): inhibited evoked currents in a concentration and use dependent manner; inhibition at 1000 µM (Nav1.6 channel; read-out: maximum inhibition at P1 (not normalized)): 46.4 to 47.2%
CNC(=O)[C@@H]1CN(Cc2cnc(Oc3ccccc3)nc2)CCO1 [Example 33] | 509 nM |  |  |  |  | 
O=C(NCc1ccccn1)C1CN(Cc2cccc(Oc3ccccc3)c2)CCO1 (stereo not drawn) [Example 105, reference compound] |  | 18.2% | 68% | 68% | > 9260 nM | 
CNC(=O)[C@@H]1CN(Cc2cnc(Oc3c(C)cccc3F)nc2)CCO1 [Example 35] | 933 nM |  |  |  |  | 
CCCCNc1ccc(C(=O)OCCN(C)C)cc1 [Tetracaine, reference compound] |  |  |  |  |  | state-dependent inhibition of Nav1.6 (in words) (Nav1.6 channel; depolarized vs hyperpolarized potential): much stronger at depolarized potentials than at hyperpolarized potential
